One experiment has as its target human V2 receptor (Homo sapiens (Human), UniProt P30518). In words: Cellular in vitro assay for determining vasopressin receptor activity (V2, CRE-luciferase). It counts as cell-based. The settings on record: CHO cell line transfected with human V2 receptor; [Arg8]-vasopressin at EC50 concentration; read-out: IC50 hV2.
For a further experiment, the target named is human V1a receptor (Homo sapiens (Human), UniProt P37288). In words: Cellular in vitro assay for determining vasopressin receptor activity (V1a, aequorin luminescence). It counts as cell-based. The settings on record: for IC50: CHO cell line transfected with human V1a receptor, [Arg8]-vasopressin at EC50 concentration, read-out: IC50 hV1a; for ratio IC50 hV2/hV1a: selectivity, IC50 hV2 divided by IC50 hV1a.
Sequence of human V1a receptor (P37288 whole entry): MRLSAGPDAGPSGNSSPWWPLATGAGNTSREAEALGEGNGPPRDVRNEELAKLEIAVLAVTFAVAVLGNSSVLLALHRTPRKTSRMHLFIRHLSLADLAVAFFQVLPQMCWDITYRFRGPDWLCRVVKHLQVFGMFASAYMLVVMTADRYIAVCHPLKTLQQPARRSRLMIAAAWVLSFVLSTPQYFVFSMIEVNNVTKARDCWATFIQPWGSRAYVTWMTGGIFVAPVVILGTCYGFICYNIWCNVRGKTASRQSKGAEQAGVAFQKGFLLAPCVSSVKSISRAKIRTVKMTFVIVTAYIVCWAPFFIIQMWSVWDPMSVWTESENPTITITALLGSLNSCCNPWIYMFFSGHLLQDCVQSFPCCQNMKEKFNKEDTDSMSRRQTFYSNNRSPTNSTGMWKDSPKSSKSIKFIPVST

By IC50 is commonly meant the midpoint of a concentration-inhibition curve.

Sequence of human V2 receptor (P30518 whole entry): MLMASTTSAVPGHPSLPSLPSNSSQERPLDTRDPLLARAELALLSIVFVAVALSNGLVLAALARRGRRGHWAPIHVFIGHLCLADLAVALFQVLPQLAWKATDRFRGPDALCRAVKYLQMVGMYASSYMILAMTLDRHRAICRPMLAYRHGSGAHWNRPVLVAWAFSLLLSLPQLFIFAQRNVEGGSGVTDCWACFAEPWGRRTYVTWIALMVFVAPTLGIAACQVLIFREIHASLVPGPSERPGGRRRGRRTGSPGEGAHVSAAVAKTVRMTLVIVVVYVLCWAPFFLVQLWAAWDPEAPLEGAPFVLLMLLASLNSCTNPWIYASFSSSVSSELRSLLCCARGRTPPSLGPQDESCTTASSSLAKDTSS

On to `CC(=O)NC(Cn1c(-c2ccc(Cl)cc2)nn(Cc2ncn(-c3ncccc3Cl)n2)c1=O)C(F)(F)F` (racemic) [Example 4, N-{3-[3-(4-Chlorophenyl)-1-{[1-(3-chloropyridin-2-yl)-1H-1,2,4-triazol-3-yl]methyl}-5-oxo-1,5-dihydro-4H-1,2,4-triazol-4-yl]-1,1,1-trifluoropropan-2-yl}acetamide], for which, at human V2 receptor, the IC50 is 1.85 µM. On human V1a receptor, the IC50 was 0.0555 µM and the “ratio IC50 hV2/hV1a” value is recorded as 33.3.
For `NC1(C(=O)NC(Cn2c(-c3ccc(Cl)cc3)nn(Cc3ncn(-c4ncccc4Cl)n3)c2=O)C(F)(F)F)CC1` (racemic) [Example 27, 1-Amino-N-{3-[3-(4-chlorophenyl)-1-{[1-(3-chloropyridin-2-yl)-1H-1,2,4-triazol-3-yl]methyl}-5-oxo-1,5-dihydro-4H-1,2,4-triazol-4-yl]-1,1,1-trifluoropropan-2-yl}cyclopropanecarboxamide], on human V2 receptor, the IC50 came to 1.9 µM. For the same compound, at human V1a receptor, the concentration for half-maximal inhibition (IC50) was 0.215 µM and the “ratio IC50 hV2/hV1a” value turned out to be 8.8.
Consider `O=C(NC(Cn1c(-c2ccc(Cl)cc2)nn(Cc2ncn(-c3ncccc3Cl)n2)c1=O)C(F)(F)F)C1NCC1(F)F` (centres unmarked) [Example 55, N-{3-[3-(4-Chlorophenyl)-1-{[1-(3-chloropyridin-2-yl)-1H-1,2,4-triazol-3-yl]methyl}-5-oxo-1,5-dihydro-4H-1,2,4-triazol-4-yl]-1,1,1-trifluoropropan-2-yl}-3,3-difluoroazetidine-2-carboxamide], for which the IC50 on human V2 receptor stood at 0.106 µM. On human V1a receptor, the IC50 stood at 0.00195 µM and the “ratio IC50 hV2/hV1a” value was determined as 54.4.
`O=C(/C=C/C(F)(F)F)NC(Cn1c(-c2ccc(Cl)cc2)nn(Cc2ncn(-c3ncccc3Cl)n2)c1=O)C(F)(F)F` (racemic) [Example 25, (2E)-N-{3-[3-(4-Chlorophenyl)-1-{[1-(3-chloropyridin-2-yl)-1H-1,2,4-triazol-3-yl]methyl}-5-oxo-1,5-dihydro-4H-1,2,4-triazol-4-yl]-1,1,1-trifluoropropan-2-yl}-4,4,4-trifluorobut-2-enamide]: at human V2 receptor, the IC50 amounted to 0.172 µM. Moreover, on human V1a receptor, the IC50 is 0.00175 µM and the “ratio IC50 hV2/hV1a” value is 98.6.
As for `CS(=O)(=O)CC(=O)NC(Cn1c(-c2ccc(Cl)cc2)nn(Cc2ncn(-c3ncccc3Cl)n2)c1=O)C(F)(F)F` (single isomer, unassigned) [Example 45, N-{3-[3-(4-Chlorophenyl)-1-{[1-(3-chloropyridin-2-yl)-1H-1,2,4-triazol-3-yl]methyl}-5-oxo-1,5-dihydro-4H-1,2,4-triazol-4-yl]-1,1,1-trifluoropropan-2-yl}-2-(methylsulfonyl)acetamide], the IC50 at human V2 receptor is 2.3 µM; on human V1a receptor, 0.235 µM.
For the compound `NC1(C(=O)NC(Cn2c(-c3ccc(Cl)cc3)nn(Cc3ncn(-c4ncccc4Cl)n3)c2=O)C(F)(F)F)CCC1` (racemic) [Example 29, 1-Amino-N-{3-[3-(4-chlorophenyl)-1-{[1-(3-chloropyridin-2-yl)-1H-1,2,4-triazol-3-yl]methyl}-5-oxo-1,5-dihydro-4H-1,2,4-triazol-4-yl]-1,1,1-trifluoropropan-2-yl}cyclobutanecarboxamide], the IC50 on human V2 receptor came out at 0.203 µM. Besides, on human V1a receptor, the IC50 is 0.00565 µM and the “ratio IC50 hV2/hV1a” value stood at 36.0.
In the same order, the values of `COCC(=O)NC(Cn1c(-c2ccc(Cl)cc2)nn(Cc2ncn(-c3ncccc3C(F)(F)F)n2)c1=O)C(F)(F)F` (racemic) [Example 68, N-{3-[3-(4-Chlorophenyl)-5-oxo-1-({1-[3-(trifluoromethyl)pyridin-2-yl]-1H-1,2,4-triazol-3-yl}methyl)-1,5-dihydro-4H-1,2,4-triazol-4-yl]-1,1,1-trifluoropropan-2-yl}-2-methoxyacetamide] are 0.53 µM, 0.00615 µM and 86.2.
For the compound `CS(=O)(=O)CC(=O)NC(Cn1c(-c2ccc(Cl)cc2)nn(Cc2ncn(-c3ncccc3Cl)n2)c1=O)C(F)(F)F` (racemic) [Example 44, N-{3-[3-(4-Chlorophenyl)-1-{[1-(3-chloropyridin-2-yl)-1H-1,2,4-triazol-3-yl]methyl}-5-oxo-1,5-dihydro-4H-1,2,4-triazol-4-yl]-1,1,1-trifluoropropan-2-yl}-2-(methylsulfonyl)acetamide], on human V2 receptor, the IC50 worked out at 0.12 µM. Besides, at human V1a receptor, the IC50 stood at 0.00175 µM and the “ratio IC50 hV2/hV1a” value is given as 68.6.
In the case of `O=C(NC(Cn1c(-c2ccc(Cl)cc2)nn(Cc2ncn(-c3ncccc3Cl)n2)c1=O)C(F)(F)F)C1CC1(F)F` (centres unmarked) [Example 7, N-{3-[3-(4-Chlorophenyl)-1-{[1-(3-chloropyridin-2-yl)-1H-1,2,4-triazol-3-yl]methyl}-5-oxo-1,5-dihydro-4H-1,2,4-triazol-4-yl]-1,1,1-trifluoropropan-2-yl}-2,2-difluorocyclopropanecarboxamide], at human V2 receptor, the IC50 was 0.13 µM. Moreover, on human V1a receptor, the IC50 is 0.00165 µM and the “ratio IC50 hV2/hV1a” value is given as 78.8.
Take `O=C(NC(Cn1c(-c2ccc(Cl)cc2)nn(Cc2ncn(-c3ncccc3Cl)n2)c1=O)C(F)(F)F)C1CCNC1` (centres unmarked) [Example 24, N-{3-[3-(4-Chlorophenyl)-1-{[1-(3-chloropyridin-2-yl)-1H-1,2,4-triazol-3-yl]methyl}-5-oxo-1,5-dihydro-4H-1,2,4-triazol-4-yl]-1,1,1-trifluoropropan-2-yl}pyrrolidine-3-carboxamide]: the IC50 at human V2 receptor is 0.708 µM. At human V1a receptor, the half-maximal inhibitory concentration (IC50) came to 0.0044 µM and the “ratio IC50 hV2/hV1a” value was 160.8.
Take `O=C(NC(Cn1c(-c2ccc(Cl)cc2)nn(Cc2ncn(-c3ncccc3Cl)n2)c1=O)C(F)(F)F)C1CC1F` (centres unmarked) [Example 12, N-{3-[3-(4-Chlorophenyl)-1-{[1-(3-chloropyridin-2-yl)-1H-1,2,4-triazol-3-yl]methyl}-5-oxo-1,5-dihydro-4H-1,2,4-triazol-4-yl]-1,1,1-trifluoropropan-2-yl}-2-fluorocyclopropanecarboxamide]: the IC50 at human V2 receptor is 0.56 µM. On human V1a receptor, the IC50 came to 0.0225 µM and the “ratio IC50 hV2/hV1a” value amounted to 24.9.
In the case of `O=C(NC(Cn1c(-c2ccc(Cl)cc2)nn(Cc2ncn(-c3ncccc3Cl)n2)c1=O)C(F)(F)F)C1CC(F)(F)C1` (racemic) [Example 15, N-{3-[3-(4-Chlorophenyl)-1-{[1-(3-chloropyridin-2-yl)-1H-1,2,4-triazol-3-yl]methyl}-5-oxo-1,5-dihydro-4H-1,2,4-triazol-4-yl]-1,1,1-trifluoropropan-2-yl}-3,3-difluorocyclobutanecarboxamide], the IC50 on human V2 receptor is 0.0785 µM. Also, at human V1a receptor, the IC50 turned out to be 0.00205 µM and the “ratio IC50 hV2/hV1a” value is given as 38.3.
Turning to `O=C(CF)NC(Cn1c(-c2ccc(Cl)cc2)nn(Cc2ncn(-c3ncccc3C(F)(F)F)n2)c1=O)C(F)(F)F` (racemic) [Example 61, N-{3-[3-(4-Chlorophenyl)-5-oxo-1-({1-[3-(trifluoromethyl)pyridin-2-yl]-1H-1,2,4-triazol-3-yl}methyl)-1,5-dihydro-4H-1,2,4-triazol-4-yl]-1,1,1-trifluoropropan-2-yl}-2-fluoroacetamide], on human V2 receptor, the IC50 stood at 3.8 µM. Moreover, at human V1a receptor, the IC50 came out at 0.05 µM and the “ratio IC50 hV2/hV1a” value was found to be 76.0.
For the compound `CC(C)(C)OC(=O)N1CCC1C(=O)NC(Cn1c(-c2ccc(Cl)cc2)nn(Cc2ncn(-c3ncccc3Cl)n2)c1=O)C(F)(F)F` (centres unmarked) [Example 56, tert-Butyl 2-({3-[3-(4-chlorophenyl)-1-{[1-(3-chloropyridin-2-yl)-1H-1,2,4-triazol-3-yl]methyl}-5-oxo-1,5-dihydro-4H-1,2,4-triazol-4-yl]-1,1,1-trifluoropropan-2-yl}carbamoyl)azetidine-1-carboxylate], the IC50 at human V2 receptor amounted to 1.03 µM. In addition, at human V1a receptor, the IC50 was determined as 0.0081 µM and the “ratio IC50 hV2/hV1a” value amounted to 126.8.
In the same order, the values of `Cl.O=C(NC(Cn1c(-c2ccc(Cl)cc2)nn(Cc2ncn(-c3ncccc3C(F)(F)F)n2)c1=O)C(F)(F)F)C1NCC1(F)F` (centres unmarked) [Example 69, N-{3-[3-(4-Chlorophenyl)-5-oxo-1-({1-[3-(trifluoromethyl)pyridin-2-yl]-1H-1,2,4-triazol-3-yl}methyl)-1,5-dihydro-4H-1,2,4-triazol-4-yl]-1,1,1-trifluoropropan-2-yl}-3,3-difluoroazetidine-2-carboxamide] are 0.101 µM, 0.00195 µM and 51.8.
Take `CC(F)(F)C(=O)NC(Cn1c(-c2ccc(Cl)cc2)nn(Cc2ncn(-c3ncccc3C(F)(F)F)n2)c1=O)C(F)(F)F` (racemic) [Example 60, N-{3-[3-(4-Chlorophenyl)-5-oxo-1-({1-[3-(trifluoromethyl)pyridin-2-yl]-1H-1,2,4-triazol-3-yl}methyl)-1,5-dihydro-4H-1,2,4-triazol-4-yl]-1,1,1-trifluoropropan-2-yl}-2,2-difluoropropanamide]: the IC50 on human V2 receptor stood at 1.55 µM. In addition, at human V1a receptor, the IC50 is 0.0185 µM and the “ratio IC50 hV2/hV1a” value was determined as 83.8.
In the case of `O=C(NC(Cn1c(-c2ccc(Cl)cc2)nn(Cc2ncn(-c3ncccc3Cl)n2)c1=O)C(F)(F)F)C1CS(=O)(=O)C1` (racemic) [Example 38, N-{3-[3-(4-Chlorophenyl)-1-{[1-(3-chloropyridin-2-yl)-1H-1,2,4-triazol-3-yl]methyl}-5-oxo-1,5-dihydro-4H-1,2,4-triazol-4-yl]-1,1,1-trifluoropropan-2-yl}thietane-3-carboxamide 1,1-dioxide], at human V2 receptor, the IC50 was 0.048 µM. For the same compound, at human V1a receptor, the IC50 is 0.0017 µM and the “ratio IC50 hV2/hV1a” value came out at 28.2.
Take `O=C(CC(F)(F)F)NC(Cn1c(-c2ccc(Cl)cc2)nn(Cc2ncn(-c3ncccc3Cl)n2)c1=O)C(F)(F)F` (racemic) [Example 11, N-{3-[3-(4-Chlorophenyl)-1-{[1-(3-chloropyridin-2-yl)-1H-1,2,4-triazol-3-yl]methyl}-5-oxo-1,5-dihydro-4H-1,2,4-triazol-4-yl]-1,1,1-trifluoropropan-2-yl}-3,3,3-trifluoropropanamide]: the figures for the IC50 on human V2 receptor and at human V1a receptor were 0.0455 µM and 0.0012 µM, respectively. Also, the “ratio IC50 hV2/hV1a” value on human V1a receptor is recorded as 37.9.

These data come from patent US11149023B2, “Substituted triazole derivatives and uses thereof” (Bayer Pharma Aktiengesellschaft, priority 2017, dated 2021).
